Laboratory results taken from the kinase profiling compilation of Christmann-Franck et al. (2016).

Key:
Assay in all cases: KINOMEscan competition binding
Details in all cases: compound 10.0 µM
PRKCD (human) = PRKCD (human) (UniProt Q05655)
PDPK1 (human) = PDPK1 (human) (UniProt O15530)
NTRK1 (human) = NTRK1 (human) (UniProt P04629)
NUAK2 (human) = NUAK2 (human) (UniProt Q9H093)
RPS6KA1 KD2 (human) = RPS6KA1 KD2 (human) (UniProt Q15418)
YES1 (human) = YES1 (human) (UniProt P07947)
CDK16 (human) = CDK16 (human) (UniProt Q00536)
AAK1 (human) = AAK1 (human) (UniProt Q2M2I8)
MYLK4 (human) = MYLK4 (human) (UniProt Q86YV6)
ABL1 (human) = ABL1 (human) (UniProt P00519)
ADCK3 (human) = ADCK3 (human) (UniProt Q8NI60)
IKBKE (human) = IKBKE (human) (UniProt Q14164)
SGK110 (human) = SGK110 (human) (UniProt P0C264)
Chain of SGK110 (human) (P0C264 whole entry, looked up): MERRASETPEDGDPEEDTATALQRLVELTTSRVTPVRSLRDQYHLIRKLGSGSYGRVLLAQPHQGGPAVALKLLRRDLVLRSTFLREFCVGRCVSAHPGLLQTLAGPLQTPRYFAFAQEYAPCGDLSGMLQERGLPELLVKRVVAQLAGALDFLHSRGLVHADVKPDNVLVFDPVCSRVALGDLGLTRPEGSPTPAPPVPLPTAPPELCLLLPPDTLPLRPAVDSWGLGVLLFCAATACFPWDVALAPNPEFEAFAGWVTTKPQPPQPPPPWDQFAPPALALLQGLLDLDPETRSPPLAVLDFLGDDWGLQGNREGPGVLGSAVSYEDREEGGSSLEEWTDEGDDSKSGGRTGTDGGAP

CAMK2B (human) = CAMK2B (human) (UniProt Q13554)
MARK3 (human) = MARK3 (human) (UniProt P27448)
NTRK2 (human) = NTRK2 (human) (UniProt Q16620)
PRKAA2 (human) = PRKAA2 (human) (UniProt P54646)
CDK9 (human) = CDK9 (human) (UniProt P50750)
PDGFRB (human) = PDGFRB (human) (UniProt P09619)
CDK18 (human) = CDK18 (human) (UniProt Q07002)
Chain of CDK18 (human) (Q07002 whole entry, looked up): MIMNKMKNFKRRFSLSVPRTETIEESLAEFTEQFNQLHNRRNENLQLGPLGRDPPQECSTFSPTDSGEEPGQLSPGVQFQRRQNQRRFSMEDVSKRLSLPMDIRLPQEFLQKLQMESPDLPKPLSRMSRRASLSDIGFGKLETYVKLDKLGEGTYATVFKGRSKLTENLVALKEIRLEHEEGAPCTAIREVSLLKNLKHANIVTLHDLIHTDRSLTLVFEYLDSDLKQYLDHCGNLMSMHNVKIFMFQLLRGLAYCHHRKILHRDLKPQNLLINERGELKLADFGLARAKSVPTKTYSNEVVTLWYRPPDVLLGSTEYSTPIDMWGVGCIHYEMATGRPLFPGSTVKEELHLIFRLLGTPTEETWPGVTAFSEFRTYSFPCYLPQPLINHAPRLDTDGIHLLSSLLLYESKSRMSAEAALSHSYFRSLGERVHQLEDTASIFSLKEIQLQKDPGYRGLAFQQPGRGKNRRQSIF

CHUK (human) = CHUK (human) (UniProt O15111)
AURKB (human) = AURKB (human) (UniProt Q96GD4)
MYLK2 (human) = MYLK2 (human) (UniProt Q9H1R3)
PTK2B (human) = PTK2B (human) (UniProt Q14289)
ERBB3 (human) = ERBB3 (human) (UniProt P21860)
CAMK1D (human) = CAMK1D (human) (UniProt Q8IU85)
[1] = test system: BRAF (human), P15056 [V600E]
Chain of BRAF (human), P15056 [V600E] (P15056 whole entry V600E, looked up): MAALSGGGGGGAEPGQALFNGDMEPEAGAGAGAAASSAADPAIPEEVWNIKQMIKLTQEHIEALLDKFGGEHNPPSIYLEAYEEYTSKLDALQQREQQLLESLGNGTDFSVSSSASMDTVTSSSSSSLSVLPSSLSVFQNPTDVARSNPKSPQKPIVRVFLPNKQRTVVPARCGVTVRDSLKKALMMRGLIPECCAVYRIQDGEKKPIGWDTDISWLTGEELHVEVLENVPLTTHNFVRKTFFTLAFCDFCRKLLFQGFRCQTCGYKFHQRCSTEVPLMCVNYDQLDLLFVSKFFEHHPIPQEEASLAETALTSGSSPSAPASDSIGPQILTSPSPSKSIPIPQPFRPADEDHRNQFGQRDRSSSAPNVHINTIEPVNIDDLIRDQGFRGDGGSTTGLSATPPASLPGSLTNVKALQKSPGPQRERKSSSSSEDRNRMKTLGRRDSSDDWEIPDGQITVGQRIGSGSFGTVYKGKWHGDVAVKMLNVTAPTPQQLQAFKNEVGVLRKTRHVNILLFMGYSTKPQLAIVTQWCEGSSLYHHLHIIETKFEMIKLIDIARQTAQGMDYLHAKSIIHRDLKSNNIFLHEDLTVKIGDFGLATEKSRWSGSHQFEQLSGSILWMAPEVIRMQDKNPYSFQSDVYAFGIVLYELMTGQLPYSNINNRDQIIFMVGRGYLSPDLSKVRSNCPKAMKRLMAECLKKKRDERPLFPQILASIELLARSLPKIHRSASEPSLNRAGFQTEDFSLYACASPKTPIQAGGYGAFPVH

[2] = test system: ABL1 (human), P00519 [T315I]
[3] = test system: RET (human), P07949 [V804L]
CDKL3 (human) = CDKL3 (human) (UniProt Q8IVW4)
Chain of CDKL3 (human) (Q8IVW4 whole entry, looked up): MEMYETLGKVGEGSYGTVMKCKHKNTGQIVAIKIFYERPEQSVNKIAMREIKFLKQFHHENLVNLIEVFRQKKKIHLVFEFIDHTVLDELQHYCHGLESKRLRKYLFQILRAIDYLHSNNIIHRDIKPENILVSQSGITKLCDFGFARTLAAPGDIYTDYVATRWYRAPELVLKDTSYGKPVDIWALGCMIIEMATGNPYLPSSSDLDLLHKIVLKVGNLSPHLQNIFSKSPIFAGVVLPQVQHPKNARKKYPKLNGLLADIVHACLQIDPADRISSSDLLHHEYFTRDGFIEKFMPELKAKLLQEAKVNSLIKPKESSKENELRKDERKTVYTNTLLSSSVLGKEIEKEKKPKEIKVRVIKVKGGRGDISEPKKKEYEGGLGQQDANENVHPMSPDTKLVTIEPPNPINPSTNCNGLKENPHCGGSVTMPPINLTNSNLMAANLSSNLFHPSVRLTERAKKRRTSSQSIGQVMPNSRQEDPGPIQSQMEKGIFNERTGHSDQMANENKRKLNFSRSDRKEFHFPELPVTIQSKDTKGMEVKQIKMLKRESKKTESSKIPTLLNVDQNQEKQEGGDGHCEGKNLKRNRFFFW

ACVR2B (human) = ACVR2B (human) (UniProt Q13705)
RPS6KA2 KD2 (human) = RPS6KA2 KD2 (human) (UniProt Q15349)
PKN2 (human) = PKN2 (human) (UniProt Q16513)
DYRK2 (human) = DYRK2 (human) (UniProt Q92630)
PRKD1 (human) = PRKD1 (human) (UniProt Q15139)
Chain of PRKD1 (human) (Q15139 whole entry, looked up): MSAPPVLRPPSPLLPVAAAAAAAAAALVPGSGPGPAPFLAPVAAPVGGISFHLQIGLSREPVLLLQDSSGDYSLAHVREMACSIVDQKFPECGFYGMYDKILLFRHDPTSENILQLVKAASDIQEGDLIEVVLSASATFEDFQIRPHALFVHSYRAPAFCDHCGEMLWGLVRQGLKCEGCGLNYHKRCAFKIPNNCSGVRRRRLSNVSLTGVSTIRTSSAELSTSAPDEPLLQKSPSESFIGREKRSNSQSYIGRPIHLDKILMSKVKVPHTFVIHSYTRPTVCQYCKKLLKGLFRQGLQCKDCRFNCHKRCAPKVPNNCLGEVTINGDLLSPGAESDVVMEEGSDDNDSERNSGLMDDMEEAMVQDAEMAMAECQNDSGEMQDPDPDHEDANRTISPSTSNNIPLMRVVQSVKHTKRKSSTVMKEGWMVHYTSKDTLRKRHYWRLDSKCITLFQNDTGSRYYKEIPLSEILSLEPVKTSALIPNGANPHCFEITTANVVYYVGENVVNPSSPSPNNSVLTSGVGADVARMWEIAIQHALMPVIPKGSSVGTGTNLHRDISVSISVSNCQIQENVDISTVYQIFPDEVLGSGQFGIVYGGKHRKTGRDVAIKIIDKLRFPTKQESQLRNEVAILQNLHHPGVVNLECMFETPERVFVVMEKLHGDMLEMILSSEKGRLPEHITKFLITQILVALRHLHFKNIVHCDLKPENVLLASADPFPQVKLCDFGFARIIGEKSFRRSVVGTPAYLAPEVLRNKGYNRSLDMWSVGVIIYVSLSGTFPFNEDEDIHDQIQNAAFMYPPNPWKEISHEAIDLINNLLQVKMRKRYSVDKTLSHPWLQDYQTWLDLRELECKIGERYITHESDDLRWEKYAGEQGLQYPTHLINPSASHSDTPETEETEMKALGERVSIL

TNK1 (human) = TNK1 (human) (UniProt Q13470)
PIM2 (human) = PIM2 (human) (UniProt Q9P1W9)
MAP2K6 (human) = MAP2K6 (human) (UniProt P52564)
Chain of MAP2K6 (human) (P52564 whole entry, looked up): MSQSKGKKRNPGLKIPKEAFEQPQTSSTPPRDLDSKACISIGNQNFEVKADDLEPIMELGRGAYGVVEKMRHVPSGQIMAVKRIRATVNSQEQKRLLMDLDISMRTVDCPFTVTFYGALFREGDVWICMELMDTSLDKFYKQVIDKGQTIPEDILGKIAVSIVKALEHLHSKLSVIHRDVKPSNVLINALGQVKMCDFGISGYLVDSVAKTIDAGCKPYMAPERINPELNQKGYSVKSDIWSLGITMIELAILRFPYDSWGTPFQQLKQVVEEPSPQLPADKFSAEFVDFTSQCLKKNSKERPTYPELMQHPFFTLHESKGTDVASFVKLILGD

AKT1 (human) = AKT1 (human) (UniProt P31749)
MAP4K2 (human) = MAP4K2 (human) (UniProt Q12851)
CIT (human) = CIT (human) (UniProt O14578)
ACVR1 (human) = ACVR1 (human) (UniProt Q04771)

Chain of PRKCD (human) (Q05655 whole entry, looked up): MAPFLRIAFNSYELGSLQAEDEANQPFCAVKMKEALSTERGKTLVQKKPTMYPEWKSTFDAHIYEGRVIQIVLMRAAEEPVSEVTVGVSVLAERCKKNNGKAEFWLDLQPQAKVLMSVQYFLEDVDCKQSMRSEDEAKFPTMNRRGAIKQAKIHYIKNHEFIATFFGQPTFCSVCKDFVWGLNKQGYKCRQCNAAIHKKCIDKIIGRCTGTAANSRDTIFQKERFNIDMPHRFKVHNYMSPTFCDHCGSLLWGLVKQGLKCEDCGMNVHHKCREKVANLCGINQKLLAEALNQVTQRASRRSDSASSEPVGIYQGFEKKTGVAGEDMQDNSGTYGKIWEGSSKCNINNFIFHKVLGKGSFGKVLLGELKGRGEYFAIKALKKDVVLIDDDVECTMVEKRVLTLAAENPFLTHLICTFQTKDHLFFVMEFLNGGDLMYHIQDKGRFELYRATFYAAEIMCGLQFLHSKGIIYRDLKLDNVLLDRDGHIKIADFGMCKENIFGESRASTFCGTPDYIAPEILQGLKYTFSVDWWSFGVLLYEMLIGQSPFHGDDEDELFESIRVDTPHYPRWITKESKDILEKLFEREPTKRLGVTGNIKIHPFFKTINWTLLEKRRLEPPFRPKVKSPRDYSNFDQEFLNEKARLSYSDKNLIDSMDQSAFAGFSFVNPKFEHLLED
Chain of RPS6KA1 KD2 (human) (Q15418 whole entry, looked up): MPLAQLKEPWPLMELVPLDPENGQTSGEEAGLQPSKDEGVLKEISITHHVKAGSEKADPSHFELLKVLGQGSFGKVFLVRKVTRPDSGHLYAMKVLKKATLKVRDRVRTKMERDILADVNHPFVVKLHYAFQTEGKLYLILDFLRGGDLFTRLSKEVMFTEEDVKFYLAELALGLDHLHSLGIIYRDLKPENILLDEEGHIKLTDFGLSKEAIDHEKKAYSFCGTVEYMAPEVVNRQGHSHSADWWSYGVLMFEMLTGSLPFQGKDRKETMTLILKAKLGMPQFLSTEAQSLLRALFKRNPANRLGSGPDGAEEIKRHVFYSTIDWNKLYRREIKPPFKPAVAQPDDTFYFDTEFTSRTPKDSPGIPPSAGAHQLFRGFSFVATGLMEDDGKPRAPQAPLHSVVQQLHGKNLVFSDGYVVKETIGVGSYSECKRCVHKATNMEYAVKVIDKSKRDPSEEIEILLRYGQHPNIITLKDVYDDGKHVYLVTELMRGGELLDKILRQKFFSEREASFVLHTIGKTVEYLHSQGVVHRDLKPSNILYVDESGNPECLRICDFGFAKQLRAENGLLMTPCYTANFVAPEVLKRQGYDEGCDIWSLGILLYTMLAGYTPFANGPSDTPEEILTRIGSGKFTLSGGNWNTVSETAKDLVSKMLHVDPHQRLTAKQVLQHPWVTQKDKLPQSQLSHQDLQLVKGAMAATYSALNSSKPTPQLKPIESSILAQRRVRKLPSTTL

A kinase still bound, per cent of control (PRKCD (human)) of 41%, a kinase still bound, per cent of control (PDPK1 (human)) of 100% and a kinase still bound, per cent of control (NTRK1 (human)) of 77% were found for `Cn1cc(C2=C(c3ccc(Cl)cc3Cl)C(=O)NC2=O)c2ccccc21` in this work. The kinase still bound, per cent of control (NUAK2 (human)) was 100%, the kinase still bound, per cent of control (RPS6KA1 KD2 (human)) was 53% and the kinase still bound, per cent of control (YES1 (human)) was 100%. It also gave a kinase still bound, per cent of control (CDK16 (human)) of 0.2%, a kinase still bound, per cent of control (AAK1 (human)) of 26% and a kinase still bound, per cent of control (MYLK4 (human)) of 38%. The kinase still bound, per cent of control (ABL1 (human)) was 100%, the kinase still bound, per cent of control (ADCK3 (human)) was 100% and the kinase still bound, per cent of control (IKBKE (human)) was 85%. It also gave a kinase still bound, per cent of control (SGK110 (human)) of 100%, a kinase still bound, per cent of control (CAMK2B (human)) of 55% and a kinase still bound, per cent of control (MARK3 (human)) of 86%. It also gave a kinase still bound, per cent of control (NTRK2 (human)) of 70%, a kinase still bound, per cent of control (PRKAA2 (human)) of 52% and a kinase still bound, per cent of control (CDK9 (human)) of 92%. For the same compound, the kinase still bound, per cent of control (PDGFRB (human)) was 82%, the kinase still bound, per cent of control (CDK18 (human)) was 7.4% and the kinase still bound, per cent of control (CHUK (human)) was 84%. For the same compound, the kinase still bound, per cent of control (AURKB (human)) was 96%, the kinase still bound, per cent of control (MYLK2 (human)) was 100% and the kinase still bound, per cent of control (PTK2B (human)) was 94%. The kinase still bound, per cent of control (ERBB3 (human)) was 57%, the kinase still bound, per cent of control (CAMK1D (human)) was 76% and the kinase still bound, per cent of control [1] was 78%. For the same compound, the kinase still bound, per cent of control [2] was 80%, the kinase still bound, per cent of control [3] was 100% and the kinase still bound, per cent of control (CDKL3 (human)) was 100%. It also gave a kinase still bound, per cent of control (ACVR2B (human)) of 100%, a kinase still bound, per cent of control (RPS6KA2 KD2 (human)) of 78% and a kinase still bound, per cent of control (PKN2 (human)) of 100%. The kinase still bound, per cent of control (DYRK2 (human)) was 83%, the kinase still bound, per cent of control (PRKD1 (human)) was 100% and the kinase still bound, per cent of control (TNK1 (human)) was 88%. The kinase still bound, per cent of control (PIM2 (human)) was 84%, the kinase still bound, per cent of control (MAP2K6 (human)) was 57% and the kinase still bound, per cent of control (AKT1 (human)) was 100%. The kinase still bound, per cent of control (MAP4K2 (human)) was 100%, the kinase still bound, per cent of control (CIT (human)) was 85% and the kinase still bound, per cent of control (ACVR1 (human)) was 100%.
